This passage reports mortality results from patent publication US20070184018A1, “Anthranilamide insecticides” (priority 2004, published 2007).

The series relates to corn planthopper (Peregrinus maidis). The series is described as follows: Test F: control of corn planthopper through contact and/or systemic means on corn (maize) plant. The series is classed as in vivo. As to conditions: sprayed at 250 ppm, nymphs, 6 days, visually assessed. How it is done:
Test compounds were formulated using a solution containing 10% acetone, 90% water and 300 ppm X-77™ Spreader Lo-Foam Formula non-ionic surfactant containing alkylarylpolyoxyethylene, free fatty acids, glycols and isopropanol (Loveland Industries, Inc.). The formulated compounds were applied in 1 mL of liquid through a SUJ2 atomizer nozzle with ⅛ JJ custom body (Spraying Systems Co.) positioned 1.27 cm (0.5 inches) above the top of each test unit. All experimental compounds in this screen were sprayed at 250 ppm, replicated three times. After spraying of the formulated test compound, each test unit was allowed to dry for 1 hour and then a black, screened cap was placed on top. The test units were held for 6 days in a growth chamber at 19-21° C. and 50-70% relative humidity. Each test unit was then visually assessed for insect mortality.
For evaluating control of corn planthopper (Peregrinus maidis) through contact and/or systemic means, the test unit consisted of a small open container with a 3-4 day old corn (maize) plant (spike) inside. White sand was added to the top of the soil prior to application. Test compounds were formulated and sprayed at 250 ppm and replicated three times as described for Test C. […] Each test unit was then visually assessed for insect mortality.

Regarding `Cc1cc(C#N)cc(C(N)=O)c1NC(=O)c1cc(Br)nn1-c1ccccc1Cl` [Compound 67], the mortality result is reported as “at least 80%”.
